The values below come from patent US20070287699A1, “ANTIVIRAL AGENTS” (ViroBay, Inc., priority 2006, published 2007).

One experiment deals with HCV replicon RNA replication in human Huh7 hepatoma cells. As to the kind of experiment: HCV replicon assay (activity levels from either or both of HCV replicon assay 1, Huh7/Clone A RT-qPCR, and assay 2, Huh7 ET luc-ubi-neo/ET). In kind it is cell-based, Hepatitis C virus (HCV). The conditions noted are these: Hepatitis C virus, Huh-7, either or both HCV replicon assays: Huh7/Clone A, 48 hours, 72 hours, Luc activity or RT-PCR, read-out: inhibit HCV replication at IC50 levels or estimated IC50 levels. The method, boiled down: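 Huh7/Clone A subgenomic replicon cells treated 48 h at 37° C. with 7 serial dilutions in triplicate (0.5% DMSO final). Replicon RNA measured by TaqMan RT-qPCR on the neo gene, normalized to RiboGreen total RNA; untreated cells set as 100% for IC50.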
The term IC50 denotes the concentration that gives 50% inhibition. As for `O=c1c(-c2noc(Cc3ccccc3)n2)cn(Cc2ccc(C(F)(F)F)cc2)c2cc(N3CCNCC3)c(F)cc12` [Compound 70, 3-(5-benzyl-[1,2,4]oxadiazol-3-yl)-6-fluoro-7-piperazin-1-yl-1-(4-trifluoromethyl-benzyl)-1H-quinolin-4-one], the IC50 is under 0.5 µM.
The same measure, in the same setting: next, `CN1CCN(c2cc3c(cc2F)c(=O)c(-c2nnc(Cc4ccccc4)o2)cn3Cc2ccc(Cl)cc2)CC1` [Compound 164, 3-(5-benzyl-[1,3,4]oxadiazol-2-yl)-1-(4-chloro-benzyl)-6-fluoro-7-(4-methyl-piperazin-1-yl)-1H-quinolin-4-one]: under 10 µM.
Regarding `CN(C)c1cc2c(cc1F)c(=O)c(-c1noc(Cc3ccccc3)n1)cn2Cc1ccc(C(F)(F)F)cc1F` [Compound 51, 3-(5-benzyl-[1,2,4]oxadiazol-3-yl)-7-dimethylamino-6-fluoro-1-(2-fluoro-4-trifluoromethyl-benzyl)-1H-quinolin-4-one], the IC50 was over 10 µM.
The same measure, in the same setting: the figure for `C[C@@H]1CN(c2cc3c(cc2F)c(=O)c(-c2noc(C(C)(C)c4ccc(F)cc4)n2)cn3Cc2ccc(C(F)(F)F)cc2)C[C@H](C)N1` [Compound 133, 7-((3S,5R)-3,5-dimethylpiperazin-1-yl)-6-fluoro-3-(5-(2-(4-fluorophenyl)propan-2-yl)-1,2,4-oxadiazol-3-yl)-1-(4-(trifluoromethyl)benzyl)quinolin-4(1H)-one] is under 0.5 µM.
Still for that read-out and setting: next, `Cc1ccccc1Cc1nc(-c2cn(CC3CCCCC3)c3cc(N4CCN(C)CC4)c(F)cc3c2=O)no1` [Compound 20, 1-cyclohexylmethyl-6-fluoro-3-[5-(2-methyl-benzyl)-[1,2,4]oxadiazol-3-yl]-7-(4-methyl-piperazin-1-yl)-1H-quinolin-4-one]: under 10 µM.
Regarding `CC(c1ccc(C(F)(F)F)cc1)n1cc(-c2noc(C(C)(C)c3ccc(F)cc3)n2)c(=O)c2cc(F)c(N3CCOCC3)cc21` (stereo not drawn) [Compound 109, 6-fluoro-3-(5-(2-(4-fluorophenyl)propan-2-yl)-1,2,4-oxadiazol-3-yl)-7-morpholino-1-(1-(4-(trifluoromethyl)phenyl)ethyl)quinolin-4(1H)-one], the IC50 is under 2 µM.
Same read-out and setting: the figure for `CC(C)(c1ccc(F)cc1)c1nc(-c2cn(Cc3ccc(F)cc3)c3cc(N4CCS(=O)(=O)CC4)c(F)cc3c2=O)no1` [Compound 151, 7-(1,1-dioxo-thiomorpholine)-6-fluoro-3-(5-(2-(4-fluorophenyl)propan-2-yl)-1,2,4-oxadiazol-3-yl)-1-(4-(fluoro)benzyl)quinolin-4(1H)-one] is under 10 µM.
For `CC(C)(c1ccccc1)c1nc(-c2cn(C(C)(C)c3ccccc3)c3cc(N4CCOCC4)c(F)cc3c2=O)no1` [Compound 144, 6-fluoro-7-morpholino-1-(2-phenylpropan-2-yl)-3-(5-(2-phenylpropan-2-yl)-1,2,4-oxadiazol-3-yl)quinolin-4(1H)-one], the IC50 is over 10 µM.
For the compound `O=C(O)c1cn(-c2cc3c(cc2F)c(=O)c(-c2noc(Cc4ccccc4)n2)cn3Cc2ccc(C(F)(F)F)cc2F)cn1` [Compound 104, 1-(3-(5-benzyl-1,2,4-oxadiazol-3-yl)-6-fluoro-1-(2-fluoro-4-(trifluoromethyl)benzyl)-4-oxo-1,4-dihydroquinolin-7-yl)-1H-imidazole-4-carboxylic acid], the IC50 is over 10 µM.
Turning to `O=c1c(-c2noc(Cc3ccccc3)n2)cn(Cc2ccc(C(F)(F)F)cc2F)c2ccccc12` [Compound 94, 3-(5-benzyl-[1,2,4]oxadiazol-3-yl)-1-(2-fluoro-4-trifluoromethyl-benzyl)-1H-quinolin-4-one], the IC50 was over 10 µM.
Still for that read-out and setting: the figure for `CCCCCc1nc(-c2cn(Cc3ccc(C(F)(F)F)cc3F)c3cc(N4CCN(C)CC4)c(F)cc3c2=O)no1` [Compound 40, 6-fluoro-1-(2-fluoro-4-trifluoromethyl-benzyl)-7-(4-methyl-piperazin-1-yl)-3-(5-pentyl-[1,2,4]oxadiazol-3-yl)-1H-quinolin-4-one] is under 2 µM.
The same measure, in the same setting: the figure for `CN1CCN(c2cc3c(cc2F)c(=O)c(-c2noc(C(CCCC#N)c4ccccc4)n2)cn3Cc2ccc(Cl)cc2)CC1` (stereo not drawn) [Compound 63, 5-{3-[1-(4-chloro-benzyl)-6-fluoro-7-(4-methyl-piperazin-1-yl)-4-oxo-1,4-dihydro-quinolin-3-yl]-[1,2,4]oxadiazol-5-yl}-5-phenyl-pentanenitrile] is under 2 µM.
For the compound `C[C@H](c1ccccc1)n1cc(-c2noc(C(C)(C)c3ccccc3)n2)c(=O)c2cc(F)c(N3CCOCC3)cc21` [Compound 145, (R)-6-fluoro-7-morpholino-1-(1-phenylethyl)-3-(5-(2-phenylpropan-2-yl)-1,2,4-oxadiazol-3-yl)quinolin-4(1H)-one], the IC50 is over 10 µM.
Consider `CN1CCN(c2cc3c(cc2F)c(=O)c(-c2noc(Cc4ccccc4)n2)cn3CCN2CCOCC2)CC1` [Compound 59, 3-(5-benzyl-[1,2,4]oxadiazol-3-yl)-6-fluoro-7-(4-methyl-piperazin-1-yl)-1-(2-morpholin-4-yl-ethyl)-1H-quinolin-4-one], for which the IC50 was over 10 µM.
Turning to `O=C1CN(c2cc3c(cc2F)c(=O)c(-c2noc(Cc4ccc(F)cc4)n2)cn3Cc2ccc(C(F)(F)F)cc2F)CCN1` [Compound 87, 6-fluoro-3-[5-(4-fluoro-benzyl)-[1,2,4]oxadiazol-3-yl]-1-(2-fluoro-4-trifluoromethyl-benzyl)-7-(3-oxo-piperazin-1-yl)-1H-quinolin-4-one], the IC50 is under 0.5 µM.
On the same count and under the same terms, next, `CN1CCN(c2cc3c(cc2F)c(=O)c(-c2noc(Cc4ccccn4)n2)cn3Cc2ccc(Cl)cc2)CC1` [Compound 61, 1-(4-chloro-benzyl)-6-fluoro-7-(4-methyl-piperazin-1-yl)-3-(5-pyridin-2-ylmethyl-[1,2,4]oxadiazol-3-yl)-1H-quinolin-4-one]: over 10 µM; `CN1CCN(c2cc3c(cc2F)c(=O)c(-c2noc(Cc4ccccc4)n2)cn3CCc2ccccc2)CC1` [Compound 79, 3-(5-benzyl-[1,2,4]oxadiazol-3-yl)-6-fluoro-7-(4-methyl-piperazin-1-yl)-1-phenethyl-1H-quinolin-4-one]: over 10 µM; `CC(C)Cc1nc(-c2cn(CC3CCCCC3)c3cc(N4CCN(C)CC4)c(F)cc3c2=O)no1` [Compound 13, 1-cyclohexylmethyl-6-fluoro-3-(5-isobutyl-[1,2,4]oxadiazol-3-yl)-7-(4-methyl-piperazin-1-yl)-1H-quinolin-4-one]: over 10 µM.
For the compound `O=c1c(-c2noc(Cc3ccccc3)n2)cn(Cc2ccc(C(F)(F)F)cc2)c2cc(N(CCO)CCO)c(F)cc12` [Compound 83, 3-(5-benzyl-[1,2,4]oxadiazol-3-yl)-7-[bis-(2-hydroxy-ethyl)-amino]-6-fluoro-1-(4-trifluoromethyl-benzyl)-1H-quinolin-4-one], the IC50 was under 10 µM.
On the same count and under the same terms, the figure for `CN(CC(N)=O)c1cc2c(cc1F)c(=O)c(-c1noc(Cc3ccccc3)n1)cn2Cc1ccc(C(F)(F)F)cc1` [Compound 97, 2-{[3-(5-benzyl-[1,2,4]oxadiazol-3-yl)-6-fluoro-4-oxo-1-(4-trifluoromethyl-benzyl)-1,4-dihydro-quinolin-7-yl]-methyl-amino}-acetamide] is over 10 µM; for `CN1CCN(c2cc3c(cc2F)c(=O)c(-c2noc(C(C)(C)c4ccccc4)n2)cn3C2(c3ccc(C(F)(F)F)cc3)CC2)CC1` [Compound 96, 6-fluoro-3-[5-(1-methyl-1-phenyl-ethyl)-[1,2,4]oxadiazol-3-yl]-7-(4-methyl-piperazin-1-yl)-1-[1-(4-trifluoromethyl-phenyl)-cyclopropyl]-1H-quinolin-4-one] it is under 0.5 µM.
Regarding `O=c1c(-c2noc(Cc3ccccc3)n2)cn(Cc2ccc(Cl)cc2)c2cc(N3CCNCC3)c(F)cc12` [Compound 25, 3-(5-benzyl-[1,2,4]oxadiazol-3-yl)-1-(4-chloro-benzyl)-6-fluoro-7-piperazin-1-yl-1H-quinolin-4-one], the IC50 is under 2 µM.
Consider `CN1CCN(c2cc3c(cc2F)c(=O)c(-c2noc(C(CCCCN)c4ccccc4)n2)cn3Cc2ccc(Cl)cc2)CC1` (stereo not drawn) [Compound 82, 3-[5-(5-amino-1-phenyl-pentyl)-[1,2,4]oxadiazol-3-yl]-1-(4-chloro-benzyl)-6-fluoro-7-(4-methyl-piperazin-1-yl)-1H-quinolin-4-one], for which the IC50 is under 10 µM.
Consider `CN1CCN(c2cc3c(cc2F)c(=O)c(-c2noc(C(CCC(N)=O)c4ccccc4)n2)cn3Cc2ccc(Cl)cc2)CC1` (stereo not drawn) [Compound 67, 4-{3-[1-(4-chloro-benzyl)-6-fluoro-7-(4-methyl-piperazin-1-yl)-4-oxo-1,4-dihydro-quinolin-3-yl]-[1,2,4]oxadiazol-5-yl}-4-phenyl-butyramide], for which the IC50 is under 10 µM.
As for `CN1CCN(c2cc3c(cc2F)c(=O)c(-c2noc(Cc4cccnc4)n2)cn3Cc2ccc(Cl)cc2)CC1` [Compound 62, 1-(4-chloro-benzyl)-6-fluoro-7-(4-methyl-piperazin-1-yl)-3-(5-pyridin-3-ylmethyl-[1,2,4]oxadiazol-3-yl)-1H-quinolin-4-one], the IC50 is over 10 µM.
On the same count and under the same terms, next, `CC1CN(c2cc3c(cc2F)c(=O)c(-c2noc(C(C)(C)c4ccccc4)n2)cn3Cc2ccc(C(F)(F)F)cc2)CC(C)O1` (stereo not drawn) [Compound 138, 7-(2,6-dimethylmorpholino)-6-fluoro-3-(5-(2-phenylpropan-2-yl)-1,2,4-oxadiazol-3-yl)-1-(4-(trifluoromethyl)benzyl)quinolin-4(1H)-one]: under 2 µM.

Still in this experiment, the particulars now being: either or both HCV replicon assays: Huh7/Clone A, 48 hours, 72 hours, Luc activity or RT-PCR, read-out: inhibit HCV replication at IC50 levels or estimated IC50 levels.
On to `CN1CCN(c2cc3c(cc2F)c(=O)c(-c2noc(Cc4ccccc4)n2)cn3Cc2ccc(C(F)(F)F)cc2F)CC1` [Compound 35, 3-(5-benzyl-[1,2,4]oxadiazol-3-yl)-6-fluoro-1-(2-fluoro-4-trifluoromethyl-benzyl)-7-(4-methyl-piperazin-1-yl)-1H-quinolin-4-one], for which the IC50 is under 2 µM.
